*1 amine or outer side, *2 acyl side, *3 side chain or, on linkers, in order; H or OH if unused. Where a SMILES comes first, the peptide text is derived from it. Side-chain parts run from the residue outwards. [ ]: non-standard residue; d: D form. The star is where a group is joined. Isobutyryl(2-(3-CN-5-F-Ph)) = CC(C)(C(=O)*)c1cc(F)cc(C#N)c1; C20 diacid = O=C(O)CCCCCCCCCCCCCCCCCCC(=O)*; γGlu = O=C(O)[C@H](CCC(=O)[*:2])N[*:1]; Phe(2-F) = N[C@@H](Cc1ccccc1F)C(=O)O; X20 = O=C(C1(c2ccc(Cl)cc2)CCOCC1)*; Trx = NC[C@H]1CC[C@H](C(=O)O)CC1; X60 = O=C(C1(c2cccnc2)CCCC1)*; β3hD = NC(CC(=O)O)CC(=O)O; AEEA = NCCOCCOCC(=O)O; Aib = CC(C)(N)C(=O)O; βAla = NCCC(=O)O
Key:
Assay type in all cases: cell-based
GLP-1 receptor [1] = target: T1, GLP-1 receptor (Homo sapiens, UniProt P43220); test: HitHunter cAMP assay, GLP-1 receptor; details: for EC50: CHO cells stably expressing human GLP-1 receptor, cAMP accumulation, 30 min, read-out: EC50 GLP-1R; for Emax: CHO cells, cAMP, normalized to maximum signal from GLP-1 (high) and DMSO (low), read-out: Emax GLP-1R
GIP receptor [2] = target: T2, GIP receptor (Homo sapiens, UniProt P48546); test: HitHunter cAMP assay, GIP receptor; details: for EC50: CHO cells stably expressing GIP receptor, cAMP accumulation, 30 min, read-out: EC50 GIP-1R; for Emax: CHO cells, cAMP, normalized to maximum signal from GIP (high) and DMSO (low), read-out: Emax GIP-1R
T2 sequence (P48546 22-466): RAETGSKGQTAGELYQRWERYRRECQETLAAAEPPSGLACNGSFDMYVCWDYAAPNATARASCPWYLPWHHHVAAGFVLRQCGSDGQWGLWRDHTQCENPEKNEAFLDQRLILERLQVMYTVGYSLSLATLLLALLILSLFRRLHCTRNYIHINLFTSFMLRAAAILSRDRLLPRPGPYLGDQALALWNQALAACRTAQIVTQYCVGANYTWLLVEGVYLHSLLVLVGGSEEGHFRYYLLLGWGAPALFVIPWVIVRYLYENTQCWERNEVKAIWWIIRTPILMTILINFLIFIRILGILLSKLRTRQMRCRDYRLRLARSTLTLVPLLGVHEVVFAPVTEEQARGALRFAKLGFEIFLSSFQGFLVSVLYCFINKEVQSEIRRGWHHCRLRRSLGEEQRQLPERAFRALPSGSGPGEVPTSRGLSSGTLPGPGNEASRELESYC

GIP receptor [3] = target: T2, GIP receptor; test: PathHunter β-arrestin assay, GIP receptor; set-up: host or cells: PathHunter CHO-K1 GIPR β-Arrestin Cell Line; details: β-arrestin-2 recruitment, PathHunter CHO-K1 GIPR β-Arrestin Cell Line, 90 min at 37° C.; normalized to GIP; read-out: GIPR β Arrestin EC50
GLP-1 receptor [4] = target: T1, GLP-1 receptor; test: PathHunter β-arrestin assay, GLP-1 receptor; set-up: host or cells: PathHunter CHO-K1 GLP1R β-Arrestin Cell Line; details: β-arrestin-2 recruitment, PathHunter CHO-K1 GLP1R β-Arrestin Cell Line, 90 min at 37° C.; normalized to GLP-1; read-out: GLP-1R β Arrestin EC50

T1 sequence (P43220 24-463): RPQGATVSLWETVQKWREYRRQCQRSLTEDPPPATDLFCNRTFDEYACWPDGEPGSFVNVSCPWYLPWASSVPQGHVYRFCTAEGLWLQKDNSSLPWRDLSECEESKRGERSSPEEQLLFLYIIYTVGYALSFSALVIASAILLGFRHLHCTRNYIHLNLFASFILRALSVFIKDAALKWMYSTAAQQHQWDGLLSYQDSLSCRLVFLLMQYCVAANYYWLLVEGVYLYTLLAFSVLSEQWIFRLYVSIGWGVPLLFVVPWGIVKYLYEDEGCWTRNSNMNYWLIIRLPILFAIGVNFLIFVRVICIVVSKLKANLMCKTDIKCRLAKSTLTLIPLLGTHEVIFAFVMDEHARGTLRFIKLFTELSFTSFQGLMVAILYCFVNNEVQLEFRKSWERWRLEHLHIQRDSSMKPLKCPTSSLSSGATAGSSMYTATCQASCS

Structure (SMILES): CC[C@H](C)[C@H](NC(=O)[C@H](CC(C)C)NC(=O)[C@H](Cc1c[nH]c2ccccc12)NC(=O)[C@H](CCC(N)=O)NC(=O)[C@@H](NC(=O)[C@H](Cc1ccccc1)NC(=O)[C@H](C)NC(=O)[C@H](CCCCNC(=O)CC[C@H](NC(=O)CC[C@H](NC(=O)CC[C@H](NC(=O)[C@H]1CC[C@H](CNC(=O)CCCCCCCCCCCCCCCCCCC(=O)O)CC1)C(=O)O)C(=O)O)C(=O)O)NC(=O)[C@H](CCC(N)=O)NC(=O)[C@H](C)NC(=O)[C@@H](NC(=O)[C@H](CCCCN)NC(=O)[C@H](CC(=O)O)NC(=O)[C@H](CC(C)C)NC(=O)C(C)(C)NC(=O)[C@@H](NC(=O)[C@H](CO)NC(=O)[C@H](Cc1ccc(O)cc1)NC(=O)[C@H](CC(=O)O)NC(=O)[C@H](CO)NC(=O)[C@@H](NC(=O)[C@H](Cc1ccccc1)NC(=O)[C@@H](NC(=O)CNC(=O)[C@H](CCC(=O)O)NC(=O)CCNC(=O)C(C)(C)c1cc(F)cc(C#N)c1)[C@@H](C)O)[C@@H](C)O)[C@@H](C)CC)[C@@H](C)CC)C(C)C)C(=O)N[C@@H](C)C(=O)NCC(=O)NCC(=O)N1CCC[C@H]1C(=O)N[C@@H](CO)C(=O)N[C@@H](CO)C(=O)NCC(=O)N[C@@H](C)C(=O)N1CCC[C@H]1C(=O)N1CCC[C@H]1C(=O)N1CCC[C@H]1C(=O)N[C@@H](CO)C(N)=O [Compound 107] ({Isobutyryl(2-(3-CN-5-F-Ph))-βAla}-EGTFTSDYSI[Aib]LDKIAQK([γGlu-γGlu-γGlu-Trx-C20 diacid])AFVQWLIAGGPSSGAPPPS-NH2)
- EC50 (GLP-1 receptor [1]): 0.1 to 1 nM
- Emax (GLP-1 receptor [1]): 95%
- EC50 (GIP receptor [2]): 1 to 10 nM
- Emax (GIP receptor [2]): 106%
- EC50 (GIP receptor [3]): < 1000 nM
- EC50 (GLP-1 receptor [4]): > 1000 nM

Structure (SMILES): CC[C@H](C)[C@H](NC(=O)[C@H](CC(C)C)NC(=O)[C@H](Cc1c[nH]c2ccccc12)NC(=O)[C@H](CCC(N)=O)NC(=O)[C@@H](NC(=O)[C@H](Cc1ccccc1)NC(=O)[C@H](C)NC(=O)[C@H](CCCCNC(=O)COCCOCCNC(=O)COCCOCCNC(=O)CC[C@H](NC(=O)CCCCCCCCCCCCCCCCCCC(=O)O)C(=O)O)NC(=O)[C@H](CCC(N)=O)NC(=O)[C@H](C)NC(=O)[C@@H](NC(=O)[C@H](CCCCN)NC(=O)[C@H](CC(=O)O)NC(=O)[C@H](CC(C)C)NC(=O)C(C)(C)NC(=O)[C@@H](NC(=O)[C@H](CO)NC(=O)[C@H](Cc1ccc(O)cc1)NC(=O)[C@H](CC(=O)O)NC(=O)[C@H](CO)NC(=O)[C@@H](NC(=O)[C@H](Cc1ccccc1F)NC(=O)[C@@H](NC(=O)CNC(=O)[C@H](CCC(=O)O)NC(=O)CCNC(=O)C1(c2cccnc2)CCCC1)[C@@H](C)O)[C@@H](C)O)[C@@H](C)CC)[C@@H](C)CC)C(C)C)C(=O)N[C@@H](C)C(=O)NCC(=O)NCC(=O)N1CCC[C@H]1C(=O)N[C@@H](CO)C(=O)N[C@@H](CO)C(=O)NCC(=O)N[C@@H](C)C(=O)N1CCC[C@H]1C(=O)N1CCC[C@H]1C(=O)N1CCC[C@H]1C(=O)N[C@@H](CO)C(N)=O [Compound 231] ({X60-βAla}-EGT[Phe(2-F)]TSDYSI[Aib]LDKIAQK([AEEA-AEEA-γGlu-C20 diacid])AFVQWLIAGGPSSGAPPPS-NH2)
- EC50 (GLP-1 receptor [1]): 0.1 to 1 nM
- Emax (GLP-1 receptor [1]): 111%
- EC50 (GIP receptor [2]): 0.1 to 1 nM
- Emax (GIP receptor [2]): 110%
- EC50 (GIP receptor [3]): > 1000 nM
- EC50 (GLP-1 receptor [4]): > 1000 nM

Structure (SMILES): CC[C@H](C)[C@H](NC(=O)[C@H](CC(C)C)NC(=O)[C@H](Cc1c[nH]c2ccccc12)NC(=O)[C@H](CCC(N)=O)NC(=O)[C@@H](NC(=O)[C@H](Cc1ccccc1)NC(=O)[C@H](C)NC(=O)[C@H](CCCCNC(=O)COCCOCCNC(=O)COCCOCCNC(=O)CC[C@H](NC(=O)CCCCCCCCCCCCCCCCCCC(=O)O)C(=O)O)NC(=O)[C@H](CCC(N)=O)NC(=O)[C@H](C)NC(=O)[C@@H](NC(=O)[C@H](CCCCN)NC(=O)[C@H](CC(=O)O)NC(=O)[C@H](CC(C)C)NC(=O)C(C)(C)NC(=O)[C@@H](NC(=O)[C@H](CO)NC(=O)[C@H](Cc1ccc(O)cc1)NC(=O)[C@H](CC(=O)O)NC(=O)[C@H](CO)NC(=O)[C@@H](NC(=O)[C@H](Cc1ccccc1)NC(=O)[C@@H](NC(=O)CNC(=O)[C@H](CCC(=O)O)NC(=O)CCNC(=O)C1(c2ccc(Cl)cc2)CCOCC1)[C@@H](C)O)[C@@H](C)O)[C@@H](C)CC)[C@@H](C)CC)C(C)C)C(=O)N[C@@H](C)C(=O)NCC(=O)NCC(=O)N1CCC[C@H]1C(=O)N[C@@H](CO)C(=O)N[C@@H](CO)C(=O)NCC(=O)N[C@@H](C)C(=O)N1CCC[C@H]1C(=O)N1CCC[C@H]1C(=O)N1CCC[C@H]1C(=O)N[C@@H](CO)C(N)=O [Compound 172] ({X20-βAla}-EGTFTSDYSI[Aib]LDKIAQK([AEEA-AEEA-γGlu-C20 diacid])AFVQWLIAGGPSSGAPPPS-NH2)
- EC50 (GLP-1 receptor [1]): 1 to 10 nM
- Emax (GLP-1 receptor [1]): 89%
- EC50 (GIP receptor [2]): 1 to 10 nM
- Emax (GIP receptor [2]): 109%
- EC50 (GIP receptor [3]): > 1000 nM
- EC50 (GLP-1 receptor [4]): > 1000 nM

Structure (SMILES): CC[C@H](C)[C@H](NC(=O)[C@H](CC(C)C)NC(=O)[C@H](Cc1c[nH]c2ccccc12)NC(=O)[C@H](CCC(N)=O)NC(=O)[C@@H](NC(=O)[C@H](Cc1ccccc1)NC(=O)[C@H](CCC(=O)O)NC(=O)[C@H](CCCCNC(=O)COCCOCCNC(=O)COCCOCCNC(=O)CC[C@H](NC(=O)CCCCCCCCCCCCCCCCCCC(=O)O)C(=O)O)NC(=O)[C@H](CCC(N)=O)NC(=O)[C@H](C)NC(=O)[C@@H](NC(=O)[C@H](CCCCN)NC(=O)[C@H](CC(=O)O)NC(=O)[C@H](CC(C)C)NC(=O)C(C)(C)NC(=O)[C@@H](NC(=O)[C@H](CO)NC(=O)[C@H](Cc1ccc(O)cc1)NC(=O)[C@H](CC(=O)O)NC(=O)[C@H](CO)NC(=O)[C@@H](NC(=O)[C@H](Cc1ccccc1)NC(=O)[C@@H](NC(=O)CNC(=O)[C@H](CCC(=O)O)NC(=O)CCNC(=O)C(C)(C)c1cc(F)cc(C#N)c1)[C@@H](C)O)[C@@H](C)O)[C@@H](C)CC)[C@@H](C)CC)C(C)C)C(=O)N[C@@H](C)C(=O)NCC(=O)NCC(=O)N1CCC[C@H]1C(=O)N[C@@H](CO)C(=O)N[C@@H](CO)C(=O)NCC(=O)N[C@@H](C)C(=O)N1CCC[C@H]1C(=O)N1CCC[C@H]1C(=O)N1CCC[C@H]1C(=O)N[C@@H](CO)C(N)=O [Compound 196] ({Isobutyryl(2-(3-CN-5-F-Ph))-βAla}-EGTFTSDYSI[Aib]LDKIAQK([AEEA-AEEA-γGlu-C20 diacid])EFVQWLIAGGPSSGAPPPS-NH2)
- EC50 (GLP-1 receptor [1]): 0.1 to 1 nM
- Emax (GLP-1 receptor [1]): 95%
- EC50 (GIP receptor [2]): 1 to 10 nM
- Emax (GIP receptor [2]): 100%
- EC50 (GIP receptor [3]): > 1000 nM
- EC50 (GLP-1 receptor [4]): > 1000 nM

Structure (SMILES): CC[C@H](C)[C@H](NC(=O)[C@H](CC(C)C)NC(=O)[C@H](Cc1c[nH]c2ccccc12)NC(=O)[C@H](CCC(N)=O)NC(=O)[C@@H](NC(=O)[C@H](Cc1ccccc1)NC(=O)[C@H](C)NC(=O)[C@H](CCCCNC(=O)COCCOCCNC(=O)COCCOCCNC(=O)CC[C@H](NC(=O)CCCCCCCCCCCCCCCCCCC(=O)O)C(=O)O)NC(=O)[C@H](CCC(N)=O)NC(=O)[C@H](C)NC(=O)[C@@H](NC(=O)[C@H](CCCCN)NC(=O)[C@H](CC(=O)O)NC(=O)[C@H](CC(C)C)NC(=O)C(C)(C)NC(=O)[C@@H](NC(=O)[C@H](CO)NC(=O)[C@H](Cc1ccc(O)cc1)NC(=O)[C@H](CC(=O)O)NC(=O)[C@H](CO)NC(=O)[C@@H](NC(=O)[C@H](Cc1ccccc1)NC(=O)[C@@H](NC(=O)CNC(=O)C[C@H](CC(=O)O)NC(=O)CCNC(=O)C(C)(C)c1cc(F)cc(C#N)c1)[C@@H](C)O)[C@@H](C)O)[C@@H](C)CC)[C@@H](C)CC)C(C)C)C(=O)N[C@@H](C)C(=O)NCC(=O)NCC(=O)N1CCC[C@H]1C(=O)N[C@@H](CO)C(=O)N[C@@H](CO)C(=O)NCC(=O)N[C@@H](C)C(=O)N1CCC[C@H]1C(=O)N1CCC[C@H]1C(=O)N1CCC[C@H]1C(=O)N[C@@H](CO)C(N)=O [Compound 115] ({Isobutyryl(2-(3-CN-5-F-Ph))-βAla}-[β3hD]GTFTSDYSI[Aib]LDKIAQK([AEEA-AEEA-γGlu-C20 diacid])AFVQWLIAGGPSSGAPPPS-NH2)
- EC50 (GLP-1 receptor [1]): 1 to 10 nM
- Emax (GLP-1 receptor [1]): 120%
- EC50 (GIP receptor [2]): 100 to 1000 nM
- Emax (GIP receptor [2]): 111%
- EC50 (GIP receptor [3]): > 1000 nM
- EC50 (GLP-1 receptor [4]): > 1000 nM
